Experimental data as given in US20150141381A1, “TETRACYCLINE COMPOUNDS HAVING TARGET THERAPEUTIC ACTIVITIES” (Paratek Pharmaceuticals, Inc., priority 2001, published 2015).
Where two headings read alike, the source gives them in different places.

Key:
[1] = tested on: S. aureus RN450; experiment: In Vitro Anti-Bacterial Activity Assay (MIC), gram positive; type: cell-based; details: for MIC: Staphylococcus aureus, RN450, 18 h
[2] = tested on: E. coli mL308 225; experiment: In Vitro Anti-Bacterial Activity Assay (MIC), gram negative; type: cell-based; details: for MIC: Escherichia coli, ML308225, 18 h
[3] = MIC class, Table 3, read-out: Antibiotic Activity Gram +
[4] = MIC class, Table 3, read-out: Antibiotic Activity Gram −
[5] = gram positive bacteria, read-out: Antibiotic Activity Gram + (MIC)
[6] = gram negative bacteria, read-out: Antibiotic Activity Gram − (MIC)
[7] = MIC class, Table 3 (Continued), read-out: Gram+ activity
[8] = MIC class, Table 3 (Continued), read-out: Gram− activity

SMILES	MIC [1, 5]	MIC [2, 6]	further results
CN(C)[C@@H]1C(O)=C(C(N)=O)C(=O)[C@@]2(O)C(O)=C3C(=O)c4c(O)ccc(-c5ccc(CNC(C)(C)C)o5)c4C[C@H]3C[C@@H]12 [MD]	–	–	MIC [1, 3]: < 4 µg/mL; MIC [2, 4]: < 4 µg/mL
CN[C@@]12C(=O)C(C(N)=O)=C(O)[C@@H](N(C)C)[C@@H]1[C@@H](OC)[C@H]1C(=C2O)C(=O)c2c(O)cccc2[C@@H]1C	> 4 µg/mL	> 4 µg/mL	–
CN(C)[C@@H]1C(O)=C(C(N)=O)C(=O)[C@@]2(O)C(O)=C3C(=O)c4c(O)c(CS(C)(=O)=O)cc(-c5ccccn5)c4C[C@H]3C[C@@H]12	< 4 µg/mL	> 4 µg/mL	–
CCCN(C)Cc1cc(N(C)C)c2c(c1O)C(=O)C1=C(O)[C@]3(O)C(=O)C(C(N)=O)=C(O)[C@@H](N(C)C)[C@@H]3C[C@@H]1C2	< 4 µg/mL	> 4 µg/mL	–
CN(C)[C@@H]1C(O)=C(C(N)=O)C(=O)[C@@]2(O)C(O)=C3C(=O)c4c(O)ccc(-c5ccc(CNC6CCCCC6)o5)c4C[C@H]3C[C@@H]12 [LK]	–	–	MIC [1, 3]: < 4 µg/mL; MIC [2, 4]: < 4 µg/mL
CONCc1cc(CNCC(C)(C)C)c(O)c2c1C[C@H]1C[C@H]3[C@H](N(C)C)C(O)=C(C(N)=O)C(=O)[C@@]3(O)C(O)=C1C2=O	< 4 µg/mL	> 4 µg/mL	–
CN(C)[C@@H]1C(O)=C(C(N)=O)C(=O)[C@@]2(O)C(O)=C3C(=O)c4c(O)ccc(-c5ccc(NC(=O)NCCCCl)cc5)c4C[C@H]3C[C@@H]12	< 4 µg/mL	> 4 µg/mL	–
CN(C)Cc1cc(N(C)C)c2c(c1O)C(=O)C1=C(O)[C@]3(O)C(=O)C(C(N)=O)=C(O)[C@@H](N(C)C)[C@@H]3C[C@@H]1C2	< 4 µg/mL	> 4 µg/mL	–
CC1C(C(=O)[C@@H]2CC(=O)C(C(N)=O)=C(O)[C@H]2N(C)C)=C(C(=O)NCC(C)(C)C)C(=O)c2c(O)cccc21 (some centres unmarked)	> 4 µg/mL	> 4 µg/mL	–
C[C@H]1c2ccc(CN3CCCCC3)c(O)c2C(=O)C2=C(O)[C@]3(O)C(=O)C(C(N)=O)=C(O)[C@@H](N(C)C)[C@@H]3[C@@H](O)[C@@H]21	< 4 µg/mL	< 4 µg/mL	–
CN(C)C(=O)c1ccc(O)c2c1C[C@H]1C[C@H]3[C@H](N(C)C)C(O)=C(C(N)=O)C(=O)[C@@]3(O)C(O)=C1C2=O	< 4 µg/mL	> 4 µg/mL	–
CN(C)[C@@H]1C(O)=C(C(N)=O)C(=O)[C@@]2(O)C(O)=C3C(=O)c4c(O)ccc(NC(=O)c5ccno5)c4C[C@H]3C[C@@H]12 [IM]	–	–	MIC [1, 3]: < 4 µg/mL; MIC [2, 4]: > 4 µg/mL
CN(C)c1cc(CNCC(=O)C(C)(C)C)c(O)c2c1C[C@H]1C[C@H]3[C@H](N(C)C)C(O)=C(C(N)=O)C(=O)[C@@]3(O)C(O)=C1C2=O	< 4 µg/mL	> 4 µg/mL	–
C[C@H]1c2c(CN)ccc(O)c2C(=O)C2=C(O)[C@]3(O)C(=O)C(C(N)=O)=C(O)[C@@H](N(C)C)[C@@H]3[C@@H](O)[C@@H]21	> 4 µg/mL	> 4 µg/mL	–
CN(Cc1cc(N(C)C)c2c(c1O)C(=O)C1=C(O)[C@]3(O)C(=O)C(C(N)=O)=C(O)[C@@H](N(C)C)[C@@H]3C[C@@H]1C2)CC(C)(C)C	< 4 µg/mL	< 4 µg/mL	–
CN(C)c1cc(CN2CCC3CCCCC3C2)c(O)c2c1C[C@H]1C[C@H]3[C@H](N(C)C)C(O)=C(C(N)=O)C(=O)[C@@]3(O)C(O)=C1C2=O (some centres unmarked)	< 4 µg/mL	< 4 µg/mL	–
CCOC(=O)Nc1cc(N(C)C)c2c(c1O)C(=O)C1=C(O)[C@]3(O)C(=O)C(C(N)=O)=C(O)[C@@H](N(C)C)[C@@H]3C[C@@H]1C2 [drawing 3364]	–	–	Antibiotic Activity Gram + (MIC) ([1]; gram positive bacteria): ** (compounds with MIC less than or equal to 4 μg/ml are indicated with **); Antibiotic Activity Gram − (MIC) ([2]; gram negative bacteria): ** (compounds with MIC less than or equal to 4 μg/ml are indicated with **)
CCc1cc(-c2ccc(N(C)C)cc2)c2c(c1O)C(=O)C1=C(O)[C@]3(O)C(=O)C(C(N)=O)=C(O)[C@@H](N(C)C)[C@@H]3C[C@@H]1C2	< 4 µg/mL	< 4 µg/mL	–
CN(C)c1cc(NC(=O)CNC(C)(C)C)c(O)c2c1C[C@H]1C[C@H]3[C@H](N(C)C)C(O)=C(C(N)=O)C(=O)[C@@]3(O)C(O)=C1C2=O [DZ]	–	–	MIC [1, 3]: < 4 µg/mL; MIC [2, 4]: < 4 µg/mL
CN(C)[C@@H]1C(O)=C(C(N)=O)C(=O)[C@@]2(O)C(O)=C3C(=O)c4c(O)cccc4C[C@H]3C[C@@H]12 [E]	–	–	MIC [1, 3]: < 4 µg/mL; MIC [2, 4]: < 4 µg/mL
O=c1cc(-c2ccc(F)cc2)oc2ccccc12	< 4 µg/mL	< 4 µg/mL	–
CCN(CC)Cc1cc(N(C)C)c2c(c1O)C(=O)C1=C(O)[C@]3(O)C(=O)C(C(N)=O)=C(O)[C@@H](N(C)C)[C@@H]3C[C@@H]1C2	< 4 µg/mL	> 4 µg/mL	–
CN(C)CCC(=O)c1cc(C(C)(C)C)c(O)c2c1C[C@H]1C[C@H]3[C@H](N(C)C)C(O)=C(C(N)=O)C(=O)[C@@]3(O)C(O)=C1C2=O	< 4 µg/mL	< 4 µg/mL	–

SMILES	MIC [1, 5]	MIC [2, 6]	further results
CN(C)[C@@H]1C(O)=C(C(N)=O)C(=O)[C@@]2(O)C(O)=C3C(=O)c4c(O)ccc(C#Cc5ccccc5F)c4C[C@H]3C[C@@H]12	–	–	MIC [1, 7]: < 4 µg/mL; MIC [2, 8]: < 4 µg/mL
COc1cc(-c2ccc(O)c3c2C[C@H]2C[C@H]4[C@H](N(C)C)C(O)=C(C(N)=O)C(=O)[C@@]4(O)C(O)=C2C3=O)cc(OC)c1OC [GE]	–	–	MIC [1, 3]: < 4 µg/mL; MIC [2, 4]: > 4 µg/mL
Cc1noc(C)c1-c1ccc(O)c2c1C[C@H]1C[C@H]3[C@H](N(C)C)C(O)=C(C(N)=O)C(=O)[C@@]3(O)C(O)=C1C2=O	< 4 µg/mL	< 4 µg/mL	–
CSCc1cc(I)c2c(c1O)C(=O)C1=C(O)[C@]3(O)C(=O)C(C(N)=O)=C(O)[C@@H](N(C)C)[C@@H]3C[C@@H]1C2	< 4 µg/mL	< 4 µg/mL	–
CN(C)[C@@H]1C(O)=C(C(N)=O)C(=O)[C@@]2(O)C(O)=C3C(=O)c4c(O)ccc(-c5ccc6c(c5)OCO6)c4C[C@H]3C[C@@H]12 [drawing 3479]	< 4 µg/mL	< 4 µg/mL	–
CN(C)[C@@H]1C(O)=C(C(N)=O)C(=O)[C@@]2(O)C(O)=C3C(=O)c4c(O)ccc(CNC(=O)C(C)(C)C)c4C[C@H]3C[C@@H]12	< 4 µg/mL	> 4 µg/mL	–
CN(C)c1cc(CN2CCCCCC2)c(O)c2c1C[C@H]1C[C@H]3[C@H](N(C)C)C(O)=C(C(N)=O)C(=O)[C@@]3(O)C(O)=C1C2=O	< 4 µg/mL	< 4 µg/mL	–
CN(C)C1C(O)=C(C(N)=O)C(=O)[C@@]2(O)C(O)=C3C(=O)c4c(O)ccc(NS(C)(=O)=O)c4C[C@H]3C[C@@H]12 (some centres unmarked) [JS]	–	–	MIC [1, 3]: < 4 µg/mL; MIC [2, 4]: > 4 µg/mL
CN(C)[C@@H]1C(O)=C(C(N)=O)C(=O)[C@@]2(O)C(O)=C3C(=O)c4c(O)ccc(-c5ccc(F)c(F)c5)c4C[C@H]3C[C@@H]12	< 4 µg/mL	< 4 µg/mL	–
CC(CF)N(C)Cc1cc(N(C)C)c2c(c1O)C(=O)C1=C(O)[C@]3(O)C(=O)C(C(N)=O)=C(O)[C@@H](N(C)C)[C@@H]3C[C@@H]1C2 (some centres unmarked)	–	–	MIC ([1]; read-out: Antibiotic Activity Gram + (MIC)): < 4 µg/mL; MIC ([2]; read-out: Antibiotic Activity Gram − (MIC)): > 4 µg/mL
Cc1ccc(/C=C/c2ccc(O)c3c2C[C@H]2C[C@H]4[C@H](N(C)C)C(O)=C(C(N)=O)C(=O)[C@@]4(O)C(O)=C2C3=O)cc1 [drawing 3345]	< 4 µg/mL	< 4 µg/mL	–
COc1ccc(/C=C/c2ccc(O)c3c2C[C@H]2C[C@H]4[C@H](N(C)C)C(O)=C(C(N)=O)C(=O)[C@@]4(O)C(O)=C2C3=O)cc1OC	–	–	MIC [1, 7]: < 4 µg/mL; MIC [2, 8]: < 4 µg/mL
CN(C)[C@@H]1C(O)=C(C(N)=O)C(=O)[C@@]2(O)C(O)=C3C(=O)c4c(O)c(CN5CCCCC5)cc(-c5ccoc5)c4C[C@H]3C[C@@H]12 [drawing 3602]	< 4 µg/mL	> 4 µg/mL	–
CN(C)[C@@H]1C(O)=C(C(N)=O)C(=O)[C@@]2(O)C(O)=C3C(=O)c4c(O)ccc(-c5ccccc5)c4C[C@H]3C[C@@H]12	< 4 µg/mL	< 4 µg/mL	–
CC(C)COC(=O)Nc1cc(N(C)C)c2c(c1O)C(=O)C1=C(O)[C@]3(O)C(=O)C(C(N)=O)=C(O)[C@@H](N(C)C)[C@@H]3C[C@@H]1C2 [DU]	–	–	MIC [1, 3]: < 4 µg/mL; MIC [2, 4]: > 4 µg/mL
CN(C)c1cc(CNCC2CCNCC2)c(O)c2c1C[C@H]1C[C@H]3[C@H](N(C)C)C(O)=C(C(N)=O)C(=O)[C@@]3(O)C(O)=C1C2=O	> 4 µg/mL	> 4 µg/mL	–
Cc1ccc(O)c2c1C[C@H]1C[C@H]3[C@H](N(C)C)C(O)=C(C(N)=O)C(=O)[C@@]3(O)C(O)=C1C2=O	< 4 µg/mL	< 4 µg/mL	–
CN(C)CCN(C)Cc1ccc(-c2cc(N(C)C)c3c(c2O)C(=O)C2=C(O)[C@]4(O)C(=O)C(C(N)=O)=C(O)[C@@H](N(C)C)[C@@H]4C[C@@H]2C3)[nH]1	> 4 µg/mL	> 4 µg/mL	–
CN(C)[C@@H]1C(O)=C(C(N)=O)C(=O)[C@@]2(O)C(O)=C3C(=O)c4c(O)ccc(-c5ccc(NC(=O)c6ccco6)cc5)c4C[C@H]3C[C@@H]12	< 4 µg/mL	> 4 µg/mL	–
CNCc1cc(CNCC(C)(C)C)c2c(c1O)C(=O)C1=C(O)[C@]3(O)C(=O)C(C(N)=O)=C(O)[C@@H](N(C)C)[C@@H]3C[C@@H]1C2	> 4 µg/mL	> 4 µg/mL	–
CCCc1ccc(O)c2c1C[C@H]1C[C@H]3[C@H](N(C)C)C(O)=C(C(N)=O)C(=O)[C@@]3(O)C(O)=C1C2=O	< 4 µg/mL	< 4 µg/mL	–
COc1ccc(C(=O)Nc2ccc(-c3ccc(O)c4c3C[C@H]3C[C@H]5C(N(C)C)C(O)=C(C(N)=O)C(=O)[C@@]5(O)C(O)=C3C4=O)cc2)cc1 (some centres unmarked) [HT]	–	–	MIC [1, 3]: < 4 µg/mL; MIC [2, 4]: > 4 µg/mL
Cc1cc(CNCc2cc(N(C)C)c3c(c2O)C(=O)C2=C(O)[C@]4(O)C(=O)C(C(N)=O)=C(O)[C@@H](N(C)C)[C@@H]4C[C@@H]2C3)oc1C [LC]	–	–	MIC [1, 3]: < 4 µg/mL; MIC [2, 4]: < 4 µg/mL
